Experimental data from patent US20010046992A1, “Treatment of urinary tract infections with antibacterial oxazolidinones” (priority 2000, published 2001).

Assay: loss of linezolid in IV solution during and following terminal moist heat sterilization in the container
Assay type: physicochemical
Settings: container-solution contact surface made of at least 50% polyolefin
Source text: It is well known to those skilled in the art that pharmaceutical agents administered IV must be sterile. While there are a number of methods to sterilize an IV solution, it is preferred to terminally moist heat or steam sterilize IV solutions of antibacterial oxazolidinones including those of linezolid. When the term terminally “moist heat sterilize” is used, it refers to and includes steam sterilization.
When terminally moist heat sterilizing an IV solution, the solution is placed in the container in which (1) it will be stored and then transferred to the container from which it will ultimately be administered, or (2) stored and then ultimately administered from the same container to deliver the IV solution to the patient. Therefore, it is imperative that the pharmaceutically active ingredient (oxazolidinone, linezolid) not react with the container in which it is to be terminally moist heat sterilized and stored/stored-administered.
What is essential is that the container-solution contact surface material be primarily a polyolefin; the remainder of the container can be made from polyolefin or other materials. It is preferred that the container-solution contact surface is made of from about 50 to about 100% polyolefin. It is more preferred that the container-solution contact surface is made of from about 70 to about 90% polyolefin. […]

- loss of linezolid during and following terminal moist heat sterilization: significantly much less loss
Compound: CC(=O)NC[C@H]1CN(c2ccc(N3CCOCC3)c(F)c2)C(=O)O1 [linezolid, (S)-N-[[3-[3-fluoro-4-(4-morpholinyl)phenyl]-2-oxo-5-oxazolidinyl]methyl]acetamide]
